Values joined by “and” are separate entries in the source; they are usually repeats but may differ in a detail not shown here. Identical values can stand only once.
Test system: IGROV1 complex spheroids (HUVEC, MSC), viability % test/control
Assay: Anticancer human tumor IGROV1 cell line growth inhibition [GQUAD];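 also: spheroids exposed to compounds for 7 days before readout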
Settings: for viability, T/C: stronger effect = lower value
Excerpt: DNA G-quadruplex Stabilizer Agents in Combinations in Complex Spheroids
A high-throughput screen of multi-cell type tumor spheroids was designed to identify active combinations of DNA G-quadruplex stabilizer agents and targeted small molecules. Complex spheroids include a stromal component modeled by human endothelial cells (HUVEC) and fibroblasts modeled by human mesenchymal stem cells (MSCs). The concentration ranges selected for each drug and investigational agent were based upon clinically achievable concentrations if the clinical Cmax of the agent was known.
Compounds. The drugs and investigational agents: pidnarulex (CX-5461; NSC782164), APTO-253 (NSC789042), BRACO-19 (NSC847499), peposertib (NSC802822), ceralasertib (NSC780249), elimusertib (NSC800525), camonsertib (NSC841442), AZD-1390 (NSC803789), olaparib (NSC753686), talazoparib (NSC767125), ART-558 (NSC835418), sotorasib (NSC818433), MRTX-1133 (NSC836407), SN-38 (NSC673596), topotecan (NSC609699), etoposide (NSC141540), doxorubicin (NSC123127), gemcitabine (NSC613327), 5-fluorouracil (NSC19893), paclitaxel (NSC125973), vemurafenib (NSC761431), panobinostat (NSC761190), R-306465 (JNJ-16241199; NSC773264), adavosertib (NSC754352), TP-3654 (NSC805149), carboplatin (NSC241240), KSQ-4279 (NSC840948), and staurosporine (NSC755774) were obtained from the National Cancer Institute (NCI) Developmental Therapeutics Program Chemical Repository (34). The FDA-approved anticancer drug set is available from the NCI Developmental Therapeutics Program. […] The stock solutions were prepared in dimethyl sulfoxide (DMSO, Sigma-Aldrich, St. Louis, MO, cat. D2650) at 800-fold the tested concentration and stored at -70 degrees C prior to their use. All drugs and investigational agents were tested over a range starting from a high concentration at or near the clinical Cmax and decreasing in half-log increments. If the clinical Cmax for an agent had not been determined, the highest concentration tested was 10 microM.
2.3 Cell Culture. All cells were maintained in an incubator at 37 degrees C and 5% CO2 with 95% humidity. The PDC lines were cultured according to standard operating procedures established by the NCI PDMR. All PDCs were thawed and cultured in Matrigel-coated flasks prepared with a working solution of 1X Ham's F-12 nutrient mix, without supplementation (Invitrogen, cat. 11765054), 100 U/mL penicillin-streptomycin (Invitrogen, cat. 15140122), and 2.5% Matrigel (Corning Inc., cat. 354248) for the first three passages. The 857933-349-R-J2-PDC line was cultured in 6C/Colon 1B media, which includes advanced DMEM/F-12 (Thermo Fisher Scientific, cat. 12634028), 10 mM HEPES (Thermo Fisher Scientific, cat. 15630080), 1X GlutaMAX supplement (Thermo Fisher Scientific, cat. 35050061), 0.1 mg/mL primocin (InvivoGen, cat. ant-pm-2), 10% defined fetal bovine serum, heat inactivated (HyClone Laboratories Inc., cat. SH30070.03HI), 50% L-WRN conditioned media (ATCC, cat. CRL-3276), 1.25 mM N-Acetyl-L-cysteine (Sigma-Aldrich, cat. A9165), 10 mM nicotinamide (Sigma-Aldrich, cat. N0636), 1X B-27 supplement (Thermo Fisher Scientific, cat. 17504044), 1X N-2 supplement (Thermo Fisher Scientific, cat. 17502048), 10 microM Y-27632 dihydrochloride (Tocris Bioscience, cat. 1254), and 50 ng/mL human EGF recombinant protein (Thermo Fisher Scientific, cat. PHG0311). The 485176-168-R4-J1-PDC line was cultured in Panc media, which includes all 6C/Colon 1B media components plus 100 ng/mL human FGF-10 (Thermo Fisher Scientific, cat. 100-26), 500 nM SB-431542 (Selleckchem, cat. S1067), and gastrin (Tocris, cat. 3006).
[…]

[1] = curve of first compound, second compound 0.0316 µM
[2] = curve of first compound, second compound 0.1 µM
[3] = curve of first compound, second compound 0.316 µM
[4] = curve of first compound, second compound 1 µM
[5] = curve of first compound, second compound 3.16 µM
[6] = curve of first compound, second compound 10 µM
[7] = second compound 0.0316 µM, first compound 0.0316 µM
[8] = second compound 0.0316 µM, first compound 0.316 µM
[9] = second compound 0.1 µM, first compound 0.0316 µM
[10] = second compound 0.1 µM, first compound 0.316 µM
[11] = second compound 0.316 µM, first compound 0.0316 µM
[12] = second compound 0.316 µM, first compound 0.316 µM
[13] = second compound 1 µM, first compound 0.0316 µM
[14] = second compound 1 µM, first compound 0.316 µM
[15] = second compound 3.16 µM, first compound 0.0316 µM
[16] = second compound 3.16 µM, first compound 0.316 µM
[17] = second compound 10 µM, first compound 0.0316 µM
[18] = second compound 10 µM, first compound 0.316 µM

Q: With COc1ccc([C@@H](O)c2cc(-c3ncnc4cc(N5CCOCC5)ccc34)c(F)cc2Cl)nn1 as the molecule, how does the viability, T/C (compound 0.0316 µM) read?
A: 98.6% and 95.7% and 99.4%

Q: What about the viability, T/C (compound 0.1 µM) of the same molecule?
A: 88.4% and 81.6% and 65.6%

Q: And the viability, T/C (compound 0.316 µM)?
A: 91.1% and 92.8% and 94.7%

Q: What about the viability, T/C (compound 1 µM) of the same molecule?
A: 50.6% and 64.3% and 60.5%

Q: And the viability, T/C (compound 3.16 µM)?
A: 20.1% and 18% and 17.6%

Q: And the viability, T/C (compound 10 µM)?
A: 6.24% and 5.2% and 5.02%

Q: What about the IC50 (curve of compound) of the same molecule?
A: 1100 nM and 1440 nM and 1360 nM

Q: C=CCn1c(=O)c2cnc(Nc3ccc(N4CCN(C)CC4)cc3)nc2n1-c1cccc(C(C)(C)O)n1 was tested. Which viability, T/C (compound 0.0316 µM) did it give?
A: 104% and 89% and 99.3%

Q: What about the viability, T/C (compound 0.1 µM) of the same molecule?
A: 65.7% and 69.2% and 68.7%

Q: What about the viability, T/C (compound 0.316 µM) of the same molecule?
A: 13.4% and 17.4% and 11.9%

Q: What about the viability, T/C (compound 1 µM) of the same molecule?
A: 3.03% and 3.13% and 2.69%

Q: What about the viability, T/C (compound 3.16 µM) of the same molecule?
A: 2.56% and 2.47% and 2.43%

Q: And the viability, T/C (compound 10 µM)?
A: 1.88% and 1.86% and 2.35%

Q: What about the IC50 (curve of compound) of the same molecule?
A: 141 nM and 153 nM and 146 nM

Q: What does the source list for Cc1[nH]c2ccccc2c1CCNCc1ccc(/C=C/C(=O)NO)cc1 + Cc1[nH]c2ccc(F)cc2c1-c1nc2c3cccnc3c3ncccc3c2[nH]1?
A: IC50 [1]: 22.8 nM; IC50 [2]: 17.6 nM; IC50 [3]: 10.6 nM; IC50 [4]: < 0.999 nM; IC50 [5]: < 0.999 nM; IC50 [6]: < 0.999 nM; viability, T/C (second compound 0.0316 µM, first compound 0.000999 µM): 107%; viability, T/C (second compound 0.0316 µM, first compound 0.00316 µM): 88.2%; viability, T/C (second compound 0.0316 µM, first compound 0.00999 µM): 80%; viability, T/C [7]: 40.3%; viability, T/C (second compound 0.0316 µM, first compound 0.0999 µM): 4.14%; viability, T/C [8]: 0.24%; viability, T/C (second compound 0.1 µM, first compound 0.000999 µM): 91.8%; viability, T/C (second compound 0.1 µM, first compound 0.00316 µM): 102%; viability, T/C (second compound 0.1 µM, first compound 0.00999 µM): 64.4%; viability, T/C [9]: 32.3%; viability, T/C (second compound 0.1 µM, first compound 0.0999 µM): 5.9%; viability, T/C [10]: 0.36%; viability, T/C (second compound 0.316 µM, first compound 0.000999 µM): 61.7%; viability, T/C (second compound 0.316 µM, first compound 0.00316 µM): 67.6%; viability, T/C (second compound 0.316 µM, first compound 0.00999 µM): 48.2%; viability, T/C [11]: 28.6%; viability, T/C (second compound 0.316 µM, first compound 0.0999 µM): 5.96%; viability, T/C [12]: 0.21%; viability, T/C (second compound 1 µM, first compound 0.000999 µM): 3.99%; viability, T/C (second compound 1 µM, first compound 0.00316 µM): 3.36%; viability, T/C (second compound 1 µM, first compound 0.00999 µM): 2.02%; viability, T/C [13]: 2.26%; viability, T/C (second compound 1 µM, first compound 0.0999 µM): 2.15%; viability, T/C [14]: 0.14%; viability, T/C (second compound 3.16 µM, first compound 0.000999 µM): 2.38%; viability, T/C (second compound 3.16 µM, first compound 0.00316 µM): 2.86%; viability, T/C (second compound 3.16 µM, first compound 0.00999 µM): 1.81%; viability, T/C [15]: 1.14%; viability, T/C (second compound 3.16 µM, first compound 0.0999 µM): 0.49%; viability, T/C [16]: 0.09%; viability, T/C (second compound 10 µM, first compound 0.000999 µM): 3.6%; viability, T/C (second compound 10 µM, first compound 0.00316 µM): 3.82%; viability, T/C (second compound 10 µM, first compound 0.00999 µM): 2.17%; viability, T/C [17]: 1.25%; viability, T/C (second compound 10 µM, first compound 0.0999 µM): 0.54%; viability, T/C [18]: 0.17%

Q: What does the source list for COc1cc(C2c3cc4c(cc3C(OC3OC5COC(C)OC5C(O)C3O)C3COC(=O)C23)OCO4)cc(OC)c1O (stereo not drawn) + CN(C)c1ccc(Nc2c3ccc(NC(=O)CCN4CCCC4)cc3nc3cc(NC(=O)CCN4CCCC4)ccc23)cc1?
A: IC50 [1]: 138 nM; IC50 [2]: 109 nM; IC50 [3]: 93.5 nM; IC50 [4]: 84.1 nM; IC50 [5]: 98.5 nM; IC50 [6]: < 31.6 nM; viability, T/C [7]: 88.3%; viability, T/C (second compound 0.0316 µM, first compound 0.1 µM): 59.8%; viability, T/C [8]: 25.1%; viability, T/C (second compound 0.0316 µM, first compound 1 µM): 13.8%; viability, T/C (second compound 0.0316 µM, first compound 3.16 µM): 9.71%; viability, T/C (second compound 0.0316 µM, first compound 10 µM): 6.8%; viability, T/C [9]: 90.7%; viability, T/C (second compound 0.1 µM, first compound 0.1 µM): 51.9%; viability, T/C [10]: 24.9%; viability, T/C (second compound 0.1 µM, first compound 1 µM): 11.9%; viability, T/C (second compound 0.1 µM, first compound 3.16 µM): 9.44%; viability, T/C (second compound 0.1 µM, first compound 10 µM): 6.65%; viability, T/C [11]: 88%; viability, T/C (second compound 0.316 µM, first compound 0.1 µM): 47.6%; viability, T/C [12]: 23.2%; viability, T/C (second compound 0.316 µM, first compound 1 µM): 11.3%; viability, T/C (second compound 0.316 µM, first compound 3.16 µM): 9.49%; viability, T/C (second compound 0.316 µM, first compound 10 µM): 5.93%; viability, T/C [13]: 83.4%; viability, T/C (second compound 1 µM, first compound 0.1 µM): 44.5%; viability, T/C [14]: 18.1%; viability, T/C (second compound 1 µM, first compound 1 µM): 12.9%; viability, T/C (second compound 1 µM, first compound 3.16 µM): 9.59%; viability, T/C (second compound 1 µM, first compound 10 µM): 5.75%; viability, T/C [15]: 85.2%; viability, T/C (second compound 3.16 µM, first compound 0.1 µM): 49.4%; viability, T/C [16]: 24.6%; viability, T/C (second compound 3.16 µM, first compound 1 µM): 11%; viability, T/C (second compound 3.16 µM, first compound 3.16 µM): 9.22%; viability, T/C (second compound 3.16 µM, first compound 10 µM): 5.74%; viability, T/C [17]: 50.3%; viability, T/C (second compound 10 µM, first compound 0.1 µM): 22.1%; viability, T/C [18]: 13.1%; viability, T/C (second compound 10 µM, first compound 1 µM): 7.21%; viability, T/C (second compound 10 µM, first compound 3.16 µM): 6.58%; viability, T/C (second compound 10 µM, first compound 10 µM): 4.87%
